From patent US20240270821A1, “GIP/GLP1/GCG TRI-RECEPTOR AGONISTS AND USES THEREOF” (priority 2023, published 2024) come the findings set out here.

Starred links: 1 amine or outer side, 2 acyl side, 3 side chain; linkers in the order of their positions; H or OH if unused. Non-standard residues stand in square brackets, D forms with d. Residues, ends and D or L forms follow the SMILES beside them. Groups on a side chain read outwards from the residue. *: point of attachment. C20 diacid = O=C(O)CCCCCCCCCCCCCCCCCCC(=O)*; γGlu = O=C(O)[C@H](CCC(=O)[*:2])N[*:1]; αMeL = CC(C)C[C@](C)(N)C(=O)O; AEEA = NCCOCCOCC(=O)O; Aib = CC(C)(N)C(=O)O

Type in all cases: cell-based
One experiment deals with hGcgR (Homo sapiens, UniProt P47871). As to the kind of experiment: Functional cAMP activation in the presence of 0.1% casein (no HSA). The settings on record: in the presence of 0.1% casein (no HSA); geometric mean; read-out: Relative cAMP EC50, hGcgR.
Experiment [1] deals with T1, hGLP-1R (Homo sapiens, UniProt P43220). As to the kind of experiment: Functional cAMP activity in the presence of 1% HSA. The settings on record: read-out: cAMP Rel EC50, hGLP-1R.
Another experiment concerns the target human GcgR (Homo sapiens, UniProt P47871). As to the kind of experiment: Functional cAMP activity in the presence of 1% HSA. The settings on record: read-out: cAMP Rel EC50, hGcgR.
For experiment [2], the target named is T2, hGIPR (Homo sapiens, UniProt P48546).
T2 sequence (P48546 22-466): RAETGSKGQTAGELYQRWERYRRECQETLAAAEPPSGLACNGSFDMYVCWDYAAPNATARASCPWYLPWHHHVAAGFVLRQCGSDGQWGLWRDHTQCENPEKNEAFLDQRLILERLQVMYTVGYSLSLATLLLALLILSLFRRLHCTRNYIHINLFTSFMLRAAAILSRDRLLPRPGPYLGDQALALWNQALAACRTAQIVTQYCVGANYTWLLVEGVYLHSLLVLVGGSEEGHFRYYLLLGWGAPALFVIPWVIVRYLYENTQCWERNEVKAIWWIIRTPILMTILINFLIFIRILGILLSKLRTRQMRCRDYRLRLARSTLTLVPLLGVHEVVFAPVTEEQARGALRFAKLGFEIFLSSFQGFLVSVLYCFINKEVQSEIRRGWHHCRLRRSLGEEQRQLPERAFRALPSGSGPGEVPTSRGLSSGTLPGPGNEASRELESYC
Nature of the experiment: Functional cAMP activity in the presence of 1% HSA. Conditions: read-out: cAMP Rel EC50, hGIPR.

For experiment [3], the target named is T2, hGIPR. Nature of the experiment: Functional cAMP activation in the presence of 0.1% casein (no HSA). The settings on record: in the presence of 0.1% casein (no HSA); geometric mean; read-out: Relative cAMP EC50, hGIPR.
Experiment [4] addresses T1, hGLP-1R. The description is as above. Conditions: in the presence of 0.1% casein (no HSA); geometric mean; read-out: Relative cAMP EC50, hGLP-1R.
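Throughout, for Relative cAMP EC50, hGIPR: intracellular cAMP rise after 30 min at 37 °C read by HTRF against a standard curve, scaled between buffer alone (0%) and top control ligand concentration (100%), four-parameter fit.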
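Throughout, for Relative cAMP EC50, hGLP-1R: intracellular cAMP rise after 30 min at 37 °C read by HTRF, normalized between buffer only (0%) and maximal control ligand (100%), four-parameter variable-slope fit.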
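Throughout, for Relative cAMP EC50, hGcgR: intracellular cAMP rise after 30 min at 37 °C, read by HTRF against a cAMP standard curve, scaled from buffer only (0%) to maximal control ligand response (100%).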

Sequence of hGcgR (P47871 26-477): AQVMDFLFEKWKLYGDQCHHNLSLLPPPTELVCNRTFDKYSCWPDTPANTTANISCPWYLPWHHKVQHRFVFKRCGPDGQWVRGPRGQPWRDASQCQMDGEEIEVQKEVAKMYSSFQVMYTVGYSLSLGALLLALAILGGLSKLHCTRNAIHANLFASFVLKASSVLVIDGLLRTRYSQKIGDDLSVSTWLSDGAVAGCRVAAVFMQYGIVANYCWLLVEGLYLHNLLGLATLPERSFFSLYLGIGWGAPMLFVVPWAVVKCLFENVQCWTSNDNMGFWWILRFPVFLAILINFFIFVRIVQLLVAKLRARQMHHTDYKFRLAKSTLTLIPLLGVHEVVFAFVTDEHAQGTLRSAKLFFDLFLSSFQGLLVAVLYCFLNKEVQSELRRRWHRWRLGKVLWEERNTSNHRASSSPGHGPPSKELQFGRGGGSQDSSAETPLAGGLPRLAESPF
Sequence of human GcgR (P47871 26-477): as above
T1 sequence (P43220 24-463): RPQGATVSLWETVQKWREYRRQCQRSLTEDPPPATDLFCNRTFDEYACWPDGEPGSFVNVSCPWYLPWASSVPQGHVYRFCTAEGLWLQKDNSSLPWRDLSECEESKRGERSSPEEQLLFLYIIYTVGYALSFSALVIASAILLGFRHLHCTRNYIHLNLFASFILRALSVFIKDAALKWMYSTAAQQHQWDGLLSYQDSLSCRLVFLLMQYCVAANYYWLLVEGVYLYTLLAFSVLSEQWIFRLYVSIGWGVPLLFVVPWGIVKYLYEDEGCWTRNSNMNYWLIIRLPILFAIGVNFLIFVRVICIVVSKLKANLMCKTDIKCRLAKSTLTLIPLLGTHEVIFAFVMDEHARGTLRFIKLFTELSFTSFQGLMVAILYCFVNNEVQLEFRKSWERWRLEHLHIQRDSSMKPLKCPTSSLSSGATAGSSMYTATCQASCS

For orientation: EC50 means the concentration that produces a half-maximal response. As for `CC[C@H](C)[C@H](NC(=O)[C@H](Cc1ccccc1)NC(=O)[C@H](C)NC(=O)C(C)(C)NC(=O)[C@H](CCC(N)=O)NC(=O)[C@H](C)NC(=O)[C@H](CCCCNC(=O)COCCOCCNC(=O)CC[C@H](NC(=O)CCCCCCCCCCCCCCCCC(=O)O)C(=O)O)NC(=O)[C@H](CCCCN)NC(=O)[C@H](CC(=O)O)NC(=O)[C@H](CC(C)C)NC(=O)[C@](C)(CC(C)C)NC(=O)[C@H](CCCN)NC(=O)[C@H](CO)NC(=O)[C@H](Cc1ccccc1)NC(=O)[C@H](CC(=O)O)NC(=O)[C@H](CO)NC(=O)[C@@H](NC(=O)[C@H](Cc1ccccc1)NC(=O)[C@@H](NC(=O)CNC(=O)[C@H](CCC(N)=O)NC(=O)C(C)(C)NC(=O)[C@@H](N)Cc1ccc(O)cc1)[C@@H](C)O)[C@@H](C)O)C(=O)N[C@@H](CCC(=O)O)C(=O)N[C@@H](Cc1ccc(O)cc1)C(=O)N[C@@H](CC(C)C)C(=O)N[C@@H](CC(C)C)C(=O)N[C@@H](CCC(=O)O)C(=O)N[C@H](C)C(=O)NCC(=O)N1CCC[C@H]1C(=O)N[C@@H](CO)C(=O)N[C@@H](CO)C(=O)NCC(=O)N[C@@H](C)C(=O)N1CCC[C@H]1C(=O)N1CCC[C@H]1C(=O)N1CCC[C@H]1C(=O)N[C@@H](CO)C(=O)NCC(=O)N[C@@H](Cc1c[nH]cn1)C(N)=O` [Example 259], the EC50 worked out at 2.55 nM on hGcgR; 220 nM on hGLP-1R [1]; 317 nM on human GcgR; 18.4 nM on hGIPR [2]; 0.114 nM on hGIPR [3]; 1.47 nM at hGLP-1R [4].

Consider `CC[C@H](C)[C@H](NC(=O)[C@H](Cc1ccccc1)NC(=O)[C@H](C)NC(=O)C(C)(C)NC(=O)[C@H](CCC(N)=O)NC(=O)[C@H](C)NC(=O)[C@H](CCCCNC(=O)COCCOCCNC(=O)CC[C@H](NC(=O)CCCCCCCCCCCCCCCCC(=O)O)C(=O)O)NC(=O)[C@H](CCCCN)NC(=O)[C@H](CC(=O)O)NC(=O)[C@H](CC(C)C)NC(=O)[C@](C)(CC(C)C)NC(=O)[C@H](CCCCN)NC(=O)[C@H](CO)NC(=O)[C@H](Cc1ccncc1)NC(=O)[C@H](CC(=O)O)NC(=O)[C@H](CO)NC(=O)[C@@H](NC(=O)[C@H](Cc1ccccc1)NC(=O)[C@@H](NC(=O)CNC(=O)[C@H](CCC(N)=O)NC(=O)C(C)(C)NC(=O)[C@@H](N)Cc1ccc(O)cc1)[C@@H](C)O)[C@@H](C)O)C(=O)N[C@@H](CCC(=O)O)C(=O)N[C@@H](Cc1ccc(O)cc1)C(=O)N[C@@H](CC(C)C)C(=O)N[C@H](C(=O)N[C@@H](CCC(=O)O)C(=O)N[C@H](C)C(=O)NCC(=O)N[C@@H](CCC(=O)O)C(=O)N[C@@H](CO)C(=O)N[C@@H](CO)C(=O)NCC(=O)N[C@@H](C)C(=O)N1CCC[C@H]1C(=O)N1CCC[C@H]1C(=O)N1CCC[C@H]1C(=O)N[C@@H](CO)C(=O)NCC(=O)N[C@@H](CO)C(N)=O)[C@@H](C)CC` [Example 283], for which the EC50 worked out at 9.73 nM at hGcgR; 233 nM at hGLP-1R [1]; 1470 nM at human GcgR; 47.2 nM at hGIPR [2]; 0.225 nM at hGIPR [3]; 1.16 nM on hGLP-1R [4].

`CC[C@H](C)[C@H](NC(=O)[C@H](Cc1ccccc1)NC(=O)[C@H](C)NC(=O)[C@H](CCCNC(=N)N)NC(=O)[C@H](CCC(N)=O)NC(=O)[C@H](C)NC(=O)[C@H](CCCCNC(=O)COCCOCCNC(=O)CC[C@H](NC(=O)CCCCCCCCCCCCCCCCCCC(=O)O)C(=O)O)NC(=O)[C@H](CCCCN)NC(=O)[C@H](CC(=O)O)NC(=O)[C@H](CC(C)C)NC(=O)[C@](C)(CC(C)C)NC(=O)[C@@H](NC(=O)[C@H](CO)NC(=O)[C@H](Cc1ccc(O)cc1)NC(=O)[C@H](CC(=O)O)NC(=O)[C@H](CO)NC(=O)[C@@H](NC(=O)[C@H](Cc1ccccc1)NC(=O)[C@@H](NC(=O)CNC(=O)[C@H](CCC(N)=O)NC(=O)C(C)(C)NC(=O)[C@@H](N)Cc1ccc(O)cc1)[C@@H](C)O)[C@@H](C)O)[C@@H](C)CC)C(=O)N[C@@H](CCC(=O)O)C(=O)N[C@@H](Cc1ccc(O)cc1)C(=O)N[C@@H](CC(C)C)C(=O)N[C@@H](CC(C)C)C(=O)N[C@@H](CCC(=O)O)C(=O)NCC(=O)NCC(=O)N1CCC[C@H]1C(=O)N[C@@H](CO)C(=O)N[C@@H](CO)C(=O)NCC(=O)N[C@@H](CCC(=O)O)C(=O)N1CCC[C@H]1C(=O)N1CCC[C@H]1C(=O)N1CCC[C@H]1C(=O)N[C@@H](CO)C(=O)NCC(N)=O` [Example 313] (H-Y[Aib]QGTFTSDYSI[αMeL]LDKK([AEEA-γGlu-C20 diacid])AQRAFIEYLLEGGPSSGEPPPSG-NH2): the EC50 on hGcgR amounted to 4.11 nM; on hGLP-1R [1], 135 nM; at human GcgR, 3290 nM; at hGIPR [2], 86.4 nM; on hGIPR [3] it was 0.49 nM; on hGLP-1R [4] it was 0.304 nM.

As for `CC[C@H](C)[C@H](NC(=O)[C@H](Cc1ccccc1)NC(=O)C(C)(C)NC(=O)C(C)(C)NC(=O)[C@H](CCC(N)=O)NC(=O)[C@H](C)NC(=O)[C@H](CCCCNC(=O)COCCOCCNC(=O)CC[C@H](NC(=O)CCCCCCCCCCCCCCCCCCC(=O)O)C(=O)O)NC(=O)[C@H](CCCN)NC(=O)[C@H](CC(=O)O)NC(=O)[C@H](CC(C)C)NC(=O)[C@](C)(CC(C)C)NC(=O)[C@@H](NC(=O)[C@H](CO)NC(=O)[C@H](Cc1ccncc1)NC(=O)[C@H](CC(=O)O)NC(=O)[C@H](CO)NC(=O)[C@@H](NC(=O)[C@](C)(Cc1ccccc1F)NC(=O)[C@@H](NC(=O)CNC(=O)[C@H](CCC(N)=O)NC(=O)C(C)(C)NC(=O)[C@@H](N)Cc1ccc(O)cc1)[C@@H](C)O)[C@@H](C)O)[C@@H](C)CC)C(=O)N[C@H](CCC(=O)O)C(=O)N[C@@](C)(Cc1ccc(O)cc1)C(=O)N[C@@H](CC(C)C)C(=O)N[C@@H](CC(C)C)C(=O)N[C@@H](CCC(=O)O)C(=O)NCC(=O)NCC(=O)N1CCC[C@H]1C(=O)N[C@@H](CO)C(=O)N[C@@H](CO)C(=O)NCC(=O)N[C@@H](CCC(=O)O)C(=O)N1CCC[C@H]1C(=O)N1CCC[C@H]1C(=O)N1CCC[C@H]1C(=O)N[C@@H](CO)C(N)=O` [Example 366], the EC50 on hGcgR worked out at 4.51 nM; at hGLP-1R [1] it was 85.9 nM; on human GcgR, 1830 nM; on hGIPR [2], 4.27 nM; on hGIPR [3], 0.024 nM; at hGLP-1R [4], 0.744 nM.

For the compound `CC[C@H](C)[C@H](NC(=O)[C@H](Cc1ccccc1)NC(=O)[C@H](CCCN)NC(=O)C(C)(C)NC(=O)[C@H](CCC(N)=O)NC(=O)[C@H](C)NC(=O)[C@H](CCCCNC(=O)COCCOCCNC(=O)CC[C@H](NC(=O)CCCCCCCCCCCCCCCCC(=O)O)C(=O)O)NC(=O)[C@H](CCCN)NC(=O)[C@H](CC(=O)O)NC(=O)[C@H](CC(C)C)NC(=O)[C@](C)(CC(C)C)NC(=O)[C@@H](NC(=O)[C@H](CO)NC(=O)[C@H](Cc1ccncc1)NC(=O)[C@H](CC(=O)O)NC(=O)[C@H](CO)NC(=O)[C@@H](NC(=O)[C@](C)(Cc1ccccc1F)NC(=O)[C@@H](NC(=O)CNC(=O)[C@H](CCC(N)=O)NC(=O)C(C)(C)NC(=O)[C@@H](N)Cc1ccc(O)cc1)[C@@H](C)O)[C@@H](C)O)[C@@H](C)CC)C(=O)N[C@H](CCC(=O)O)C(=O)N[C@@](C)(Cc1ccc(O)cc1)C(=O)N[C@@H](CC(C)C)C(=O)N[C@@H](CC(C)C)C(=O)N[C@@H](CCC(=O)O)C(=O)NCC(=O)NCC(=O)N1CCC[C@H]1C(=O)N[C@@H](CO)C(=O)N[C@@H](CO)C(=O)NCC(=O)N[C@@H](CCC(=O)O)C(=O)N1CCC[C@H]1C(=O)N1CCC[C@H]1C(=O)N1CCC[C@H]1C(=O)N[C@@H](CO)C(N)=O` [Example 367], the EC50 stood at 7.95 nM on hGcgR; 30.1 nM on hGLP-1R [1]; 668 nM on human GcgR; 4.89 nM at hGIPR [2]; 0.0215 nM on hGIPR [3]; 0.421 nM at hGLP-1R [4].
